In article PMC8558150 (Acta Pharmaceutica Sinica. B, 2021):
Like-named read-outs stand apart in the source and are kept apart here. Peptide text beside a SMILES is read from it.

Assays:
SARS-CoV-2 = conditions: read-out: EC50, secondary viral yield reduction assay; Vero E6 cells; cited from earlier work
SARS CoV-2 M^pro [1] = target: T1, SARS CoV-2 M^pro (Severe acute respiratory syndrome coronavirus 2, UniProt P0DTD1); assay: Thermal shift assay; assay type: binding
SARS-CoV-2 M^pro = conditions: cited from earlier work; for IC50: read-out: FRET IC50
SARS CoV-2 M^pro [2] = target: T1, SARS CoV-2 M^pro; assay type: cell-based
SARS CoV-2 M^pro [3] = target: T1, SARS CoV-2 M^pro; assay type: biochemical
[4] = tested on: SARS-CoV-2 (isolate USA-WA1/2020); assay: Antiviral immunofluorescence assay in Calu-3 cells; assay type: cell-based; conditions: read-out: Antiviral EC50 in Calu-3 cells
cathepsin L = conditions: read-out: cathepsin L IC50; cited from earlier work
SARS CoV-2 M^pro [5] = target: T1, SARS CoV-2 M^pro; conditions: cited from earlier work
SARS-CoV M^pro = conditions: read-out: SARS-CoV M^pro IC50; cited from earlier work

| SMILES | result in FlipGFP assay (in words) (SARS CoV-2 M^pro [2]) | result in Protease-Glo luciferase assay (in words) (SARS CoV-2 M^pro [3]) | further results |
| --- | --- | --- | --- |
| CC(C)(C)NC(=O)N[C@H](C(=O)N1C[C@H]2[C@@H]([C@H]1C(=O)NC(CC1CCC1)C(=O)C(N)=O)C2(C)C)C(C)(C)C (some centres unmarked) [boceprevir] |  |  | EC50 (SARS-CoV-2): 1950 nM |
| COC(=O)C1=C(C)NC(C)=C(C(=O)OCCN2CCN(C(c3ccccc3)c3ccccc3)CC2)C1c1cccc([N+](=O)[O-])c1 (centres unmarked) [manidipine] | no activity | no activity | binding to M^pro in thermal shift assay (in words) (SARS CoV-2 M^pro [1]): did not show binding; IC50 (SARS-CoV-2 M^pro; in the presence of 0.05% Tween-20): > 100000 nM |
| O=c1sn(-c2cccc3ccccc23)c(=O)n1Cc1ccccc1 [tideglusib] | no inhibitory activity | no inhibitory activity |  |
| CCN(CC)CCCC(C)Nc1ccnc2cc(Cl)ccc12 (centres unmarked) [chloroquine] |  |  | Ki (SARS-CoV-2 M^pro): 560 ± 120 nM |
| CCOc1nc2cccc(C(=O)O)c2n1Cc1ccc(-c2ccccc2-c2nnn[nH]2)cc1 [candesartan] |  |  | Ki (SARS-CoV-2 M^pro): 180 ± 20 nM; IC50 (SARS-CoV-2 M^pro): 2800 ± 300 nM |
| Cc1c(O)cccc1C(=O)N[C@@H](CSc1ccccc1)[C@H](O)CN1C[C@H]2CCCC[C@H]2C[C@H]1C(=O)NC(C)(C)C [nelfinavir] | not conclusive |  |  |
| CCN(CC)C(=S)SSC(=S)N(CC)CC [disulfiram] | no inhibition | no inhibition |  |
| CN(C)[C@@H]1C(O)=C(C(N)=O)C(=O)[C@@]2(O)C(O)=C3C(=O)c4c(O)cccc4[C@@](C)(O)[C@H]3[C@H](O)[C@@H]12 [oxytetracycline] |  |  | Ki (SARS-CoV-2 M^pro): 990 ± 60 nM |
| CCCC(NC(=O)C(CC(C)C)NC(=O)OCc1ccccc1)C(=O)C(=O)NCc1ccccn1 (centres unmarked) [calpain inhibitor XII] |  |  | EC50 [4]: 14800 nM; IC50 (cathepsin L): 1.62 nM |
| CC(C)c1nc(CN(C)C(=O)N[C@H](C(=O)N[C@@H](Cc2ccccc2)C[C@H](O)[C@H](Cc2ccccc2)NC(=O)OCc2cncs2)C(C)C)cs1 [ritonavir] | not active | not active |  |
| CCC[C@H](NC(=O)[C@@H]1[C@H]2CCC[C@H]2CN1C(=O)[C@@H](NC(=O)[C@@H](NC(=O)c1cnccn1)C1CCCCC1)C(C)(C)C)C(=O)C(=O)NC1CC1 [telaprevir] |  |  | inhibition in FRET assay (SARS CoV-2 M^pro [5]; at 20 μmol/L): 31% |
| CCC(C)SSc1ncc[nH]1 (centres unmarked) [PX-12] | no inhibitory activity | no inhibitory activity |  |
| O=c1cc(-c2ccccc2)oc2cc(O)c(O)c(O)c12 [baicalein] | no inhibition | no inhibition |  |
| CCCCCCNC(=O)n1cc(F)c(=O)[nH]c1=O [carmofur] | no inhibitory activity | no inhibitory activity |  |
| CC(C)c1nc(CN(C)C(=O)N[C@@H](CCN2CCOCC2)C(=O)N[C@H](CC[C@H](Cc2ccccc2)NC(=O)OCc2cncs2)Cc2ccccc2)cs1 [cobicistat] | not conclusive |  |  |
| CC(C)=CC[C@@H](O)C1=CC(=O)c2c(O)ccc(O)c2C1=O [shikonin] | no inhibition | no inhibition | M^pro inhibition in FRET assay in the presence of DTT or GSH (in words) (SARS CoV-2 M^pro [5]): no inhibition |
| CSCC[C@@H](C=O)NC(=O)[C@H](CC(C)C)NC(=O)[C@H](CC(C)C)NC(C)=O [calpain inhibitor II] (Ac-Leu-Leu-Met-aldehyde) |  |  | EC50 [4]: 30300 nM; IC50 (cathepsin L): 0.41 nM |
| Cc1cccc(C)c1OCC(=O)N[C@@H](Cc1ccccc1)[C@@H](O)C[C@H](Cc1ccccc1)NC(=O)[C@H](C(C)C)N1CCCNC1=O [lopinavir] | not conclusive | not active | IC50 (SARS-CoV M^pro): 50000 nM |
| O=c1c2ccccc2[se]n1-c1ccccc1 [ebselen] | no inhibition | no inhibition | M^pro inhibition in FRET assay in the presence of DTT or GSH (in words) (SARS CoV-2 M^pro [5]): completely lost the M^pro inhibition |
| COC(=O)N[C@H](C(=O)N[C@@H](Cc1ccccc1)[C@@H](O)CN(Cc1ccc(-c2ccccn2)cc1)NC(=O)[C@@H](NC(=O)OC)C(C)(C)C)C(C)(C)C [atazanavir] | not conclusive |  |  |
